Counter-ions that a name gives are not always drawn. Where a SMILES comes first, the peptide text is derived from it.
molecular target: T1, renin (Homo sapiens, UniProt P00797); experiment: Inhibition of the angiotensinogen-cleaving activity of renin in vitro (plasma, angiotensin I radioimmunoassay); assay type: biochemical; details: pooled blood plasma from healthy laboratory personnel, pH 7.4, incubated three hours at 37° C., angiotensin I by radioimmunoassay; read-out: IC50 (inhibitor concentration required to produce a fifty percent inhibition of the angiotensinogen-cleaving activity of renin)
T1 construct: Blood plasma was obtained from healthy laboratory personnel, pooled and stored frozen until required; from tissue; host or cells: pooled human blood plasma (supernatant after centrifugation)
T1 sequence (P00797 67-406): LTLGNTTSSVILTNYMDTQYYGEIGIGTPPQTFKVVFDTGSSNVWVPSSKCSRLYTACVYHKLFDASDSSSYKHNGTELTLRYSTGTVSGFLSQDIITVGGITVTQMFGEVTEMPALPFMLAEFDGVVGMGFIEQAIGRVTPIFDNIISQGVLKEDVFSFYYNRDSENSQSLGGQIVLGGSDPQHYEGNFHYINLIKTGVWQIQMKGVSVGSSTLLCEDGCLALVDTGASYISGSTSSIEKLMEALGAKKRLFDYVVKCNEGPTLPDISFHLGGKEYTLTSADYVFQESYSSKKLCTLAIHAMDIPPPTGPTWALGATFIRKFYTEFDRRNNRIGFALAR
Method: Blood plasma was obtained from healthy laboratory personnel, pooled and stored frozen until required. Before use, a quantity of this plasma was defrosted and centrifuged, and the supernatant mixed with protease inhibitors and buffered to pH 7.4. Renin inhibitors were added at different levels to different aliquots of the plasma supernatant, and the resulting mixtures (310 lambda) incubated for three hours at 37° C. along with renin inhibitor-free control mixtures. After incubation, the mixtures were quenched in ice water and each assayed for angiotensin I using angiotensin I antibody. The production of angiotensin I in the presence of a renin inhibitor was compared to that produced in the absence of the inhibitor, and a percentage inhibition was calculated. Using data obtained from duplicate incubations at each of several different inhibitor concentrations, the inhibitor concentration in the incubation mixture required to produce a fifty percent inhibition of the angiotensinogen-cleaving activity of renin, i.e. the IC50 of the inhibitor, was calculated for various different inhibitors.
The angiotensin I in the quenched incubation mixtures was assayed by means of a radioimmunoassay, using components of a renin radioimmunoassay kit supplied by Becton Dickinson and Co. (Orangeburg, N.Y.). This radioimmunoassay was based upon the one developed by Haber et al., J. Clin. Endocrinol., 29, pp. 1349-1355 (1969).

Molecule | IC50 [µM]
CC(C)(C)OC(=O)N[C@@H](Cc1ccccc1)C(=O)N[C@@H](Cc1c[nH]cn1)C(=O)N[C@@H](CC1CCCCC1)[C@@H](O)CC(=O)N[C@@H](CCCCN)C(=O)N[C@@H](Cc1ccccc1)C(=O)O [Example 9, [N-(t-butyloxycarbonyl)-Phe]-His-Cyclostatine-Lys-Phe] (HELM PEPTIDE1{[CC(C)(C)OC(=O)[*:2]].F.H.[O=C(C[C@H](O)[C@H](CC1CCCCC1)N[*:1])[*:2]].K.F}$$$$V2.0) | < 4
CC(C)(C)OC(=O)N1CCC[C@H]1C(=O)N[C@@H](Cc1ccccc1)C(=O)N[C@@H](Cc1c[nH]cn1)C(=O)N[C@@H](CC1CCCCC1)[C@@H](O)CC(=O)N[C@@H](CCCCN)C(=O)N[C@@H](Cc1ccccc1)C(=O)O [Example 10, [N-(t-butyloxycarbonyl)-Pro]-Phe-His-CyclostatineLys-Phe] (HELM PEPTIDE1{[CC(C)(C)OC(=O)[*:2]].P.F.H.[O=C(C[C@H](O)[C@H](CC1CCCCC1)N[*:1])[*:2]].K.F}$$$$V2.0) | < 4
CC[C@H](C)[C@@H](CN[C@@H](Cc1ccccc1)C(=O)O)NC(=O)C[C@H](O)[C@H](CC1CCCCC1)NC(=O)[C@H](Cc1c[nH]cn1)NC(=O)[C@H](Cc1ccccc1)NC(=O)OC(C)(C)C [Example 11, [N-(t-butyloxycarbonyl)-Phe]-His-Cyclostatine-[Amino(2-secbutyl-ethylene)]-Phe Acetic Acid Salt] | < 4
[N-(t-butyloxycarbonyl)-Phe]-His-Aminostatine-Ile-Phe Diacetate [Example 5] | < 4

Reference: patent US4749687A, “Renin inhibitors containing statine or derivatives thereof” (Pfizer Inc., priority 1985, dated 1988)
